From patent US8906925B2, “Pyrido[4,3-B]indoles containing rigid moieties” (Medivation Technologies, Inc., priority 2008, dated 2014) come the findings set out here.

For one experiment, the target named is histamine receptor H1 (Homo sapiens, UniProt P35367). Description: Histamine H1 radioligand binding ([3H]Pyrilamine). The note with it: for inhibition at 1 µM: read-out: Histamine Binding (1 μM) H1, percent inhibition of specific binding, 1 μM. The gist of the method:
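Values are percent inhibition of specific [3H]pyrilamine (1.2 nM) binding with compounds at ≤1 μM (1% DMSO vehicle); 180 min incubation at 25 °C, pH 7.4 Tris buffer, on CHO-expressed human H1 receptor; 1 μM pyrilamine defined nonspecific binding, bound ligand counted after filtration.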

In experiment [1] the target is T1, human recombinant histamine H2 receptor (Homo sapiens, UniProt P25021).
T1 construct: expressed in transfected cells; host or cells: Chinese hamster ovary (CHO) K1 cells
T1 sequence (P25021 whole entry): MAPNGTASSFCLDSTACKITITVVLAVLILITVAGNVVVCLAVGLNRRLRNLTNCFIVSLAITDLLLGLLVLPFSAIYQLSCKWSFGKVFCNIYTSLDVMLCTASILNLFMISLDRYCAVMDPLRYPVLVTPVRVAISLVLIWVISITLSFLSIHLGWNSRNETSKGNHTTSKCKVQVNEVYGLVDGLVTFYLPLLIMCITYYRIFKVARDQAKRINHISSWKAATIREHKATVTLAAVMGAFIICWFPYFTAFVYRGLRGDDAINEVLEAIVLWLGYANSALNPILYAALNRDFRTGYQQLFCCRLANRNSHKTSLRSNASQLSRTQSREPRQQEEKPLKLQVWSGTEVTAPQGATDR
The experiment is described as follows: Histamine H2 radioligand binding ([125I]Aminopotentidine). The note with it: read-out: Histamine Binding (1 μM) H2, percent inhibition of specific binding, 1 μM. As for the experimental part: To evaluate in radioligand binding assays the activity of compounds of the invention, human recombinant histamine H2 receptor expressed in Chinese hamster ovary (CHO) K1 cells (Ruat, M., Proc. Natl. Acad. Sci. USA. 87(5):1658, 1990) in a 50 mM Phosphate buffer, pH 7.4 was used. Compounds of the invention were incubated with 0.1 nM [^125I]Aminopotentidine for 120 min. at 25° C. Non-specific binding was estimated in the presence of 3 μM Tiotidine. Receptor proteins were filtered and washed, the filters were then counted to determine [^125I]Aminopotentidine specifically bound.

For experiment [2], the target named is human dopamine D2L receptor (Homo sapiens, UniProt P14416). The experiment is described as follows: Dopamine D2L radioligand binding ([3H]Spiperone). The note with it: compound at 1 μM. The source says: Non-specific binding was estimated in the presence of […] Haloperidol. Receptor proteins were filtered and washed, the filters were then counted to determine [^3H]Spiperone specifically bound. […] Biochemical assay results are presented as the percent inhibition of specific binding in Table 9.
Chain of human dopamine D2L receptor (P14416 whole entry): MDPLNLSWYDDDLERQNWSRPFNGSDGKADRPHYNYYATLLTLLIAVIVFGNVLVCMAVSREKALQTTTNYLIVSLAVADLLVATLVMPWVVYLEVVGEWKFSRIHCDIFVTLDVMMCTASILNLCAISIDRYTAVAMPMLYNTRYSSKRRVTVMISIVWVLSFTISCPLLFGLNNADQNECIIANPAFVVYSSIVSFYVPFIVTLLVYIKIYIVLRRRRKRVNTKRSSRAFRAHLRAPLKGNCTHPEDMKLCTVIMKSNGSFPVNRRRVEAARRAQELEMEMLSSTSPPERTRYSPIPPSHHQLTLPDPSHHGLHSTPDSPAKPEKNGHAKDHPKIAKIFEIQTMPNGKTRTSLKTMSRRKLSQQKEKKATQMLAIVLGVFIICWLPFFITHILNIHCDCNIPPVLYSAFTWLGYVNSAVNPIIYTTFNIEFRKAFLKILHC

Experiment [3] addresses T2, human recombinant serotonin (5-Hydroxytryptamine) 5-HT2A receptor (Homo sapiens, UniProt P28223).
T2 construct: expressed in transfected cells; host or cells: Chinese hamster ovary (CHO-K1) cells
Description: Serotonin 5-HT2A radioligand binding ([3H]Ketanserin). Conditions: for inhibition at 1 µM: read-out: Inhibition of ligand binding, Serotonin 5-HT2A (percent inhibition of specific binding), compound at 1 μM. As for the experimental part:
Compounds of the invention were incubated with 0.5 nM [^3H]Ketanserin for 60 min. at 25° C. Non-specific binding was estimated in the presence of 1 μM Mianserin. Receptor proteins were filtered and washed, the filters were then counted to determine [^3H]Ketanserin specifically bound.

Experiment [4] deals with T3, human recombinant serotonin (5-Hydroxytryptamine) 5-HT2C receptor (Homo sapiens, UniProt P28335).
T3 construct: expressed in transfected cells; host or cells: Chinese hamster ovary (CHO-K1) cells
T3 sequence (P28335 33-458): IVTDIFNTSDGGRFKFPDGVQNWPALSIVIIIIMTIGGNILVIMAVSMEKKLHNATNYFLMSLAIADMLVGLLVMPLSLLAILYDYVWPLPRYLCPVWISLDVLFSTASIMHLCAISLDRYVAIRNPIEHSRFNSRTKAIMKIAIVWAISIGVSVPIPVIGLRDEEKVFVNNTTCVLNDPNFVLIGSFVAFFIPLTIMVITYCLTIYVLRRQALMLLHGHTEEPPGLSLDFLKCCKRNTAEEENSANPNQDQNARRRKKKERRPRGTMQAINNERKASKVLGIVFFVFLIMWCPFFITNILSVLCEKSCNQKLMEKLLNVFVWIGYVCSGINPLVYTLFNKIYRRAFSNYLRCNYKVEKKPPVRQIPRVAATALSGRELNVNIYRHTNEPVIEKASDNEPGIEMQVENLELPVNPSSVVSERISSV
The experiment is described as follows: Serotonin 5-HT2C radioligand binding ([3H]Mesulergine). Conditions: read-out: Inhibition of ligand binding, Serotonin 5-HT2C (percent inhibition of specific binding); for inhibition at 1 µM: compound at 1 μM. The method in brief: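 Compounds tested at 1 μM or lower (1% DMSO vehicle) for displacement of 1 nM [3H]Mesulergine over 60 min at 25° C. Specific binding determined by filtration counting, with 1 μM Mianserin defining non-specific binding; values are percent inhibition.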

Experiment [5] has as its target T4, human recombinant serotonin (5-Hydroxytryptamine) 5-HT6 receptor (Homo sapiens, UniProt P50406).
T4 construct: expressed in transfected cells; host or cells: human HeLa cells
The experiment is described as follows: Serotonin 5-HT6 radioligand binding ([3H]LSD). Conditions: read-out: Inhibition of ligand binding, Serotonin 5-HT6 (percent inhibition of specific binding); for inhibition at 1 µM: compound at 1 μM. As for the experimental part:
Compounds of the invention were incubated with 1.5 nM [3H]Lysergic acid diethylamide (LSD) for 120 min. at 37° C. […] Receptor proteins were filtered and washed, the filters were then counted to determine [3H]LSD specifically bound. Compounds were screened at 1 μM or lower, using 1% DMSO as vehicle. Biochemical assay results are presented as the percent inhibition of specific binding in Table 10.

Experiment [6] concerns the target human recombinant serotonin (5-Hydroxytryptamine) 5-HT7 receptor (Homo sapiens, UniProt P34969). Description: Serotonin 5-HT7 radioligand binding ([3H]LSD). The note with it: compound at 1 μM; read-out: Inhibition of ligand binding, Serotonin 5-HT7 (percent inhibition of specific binding). The source says:
Receptor proteins were filtered and washed, the filters were then counted to determine [^3H]LSD specifically bound.

Setting [7] is: percent inhibition of specific binding, read-out: Inhibition of ligand binding, Dopamine D2L.

SMILES strings stand for the structures. Read-outs that look alike come from different tables or passages of the source.

T4 sequence (P50406 whole entry): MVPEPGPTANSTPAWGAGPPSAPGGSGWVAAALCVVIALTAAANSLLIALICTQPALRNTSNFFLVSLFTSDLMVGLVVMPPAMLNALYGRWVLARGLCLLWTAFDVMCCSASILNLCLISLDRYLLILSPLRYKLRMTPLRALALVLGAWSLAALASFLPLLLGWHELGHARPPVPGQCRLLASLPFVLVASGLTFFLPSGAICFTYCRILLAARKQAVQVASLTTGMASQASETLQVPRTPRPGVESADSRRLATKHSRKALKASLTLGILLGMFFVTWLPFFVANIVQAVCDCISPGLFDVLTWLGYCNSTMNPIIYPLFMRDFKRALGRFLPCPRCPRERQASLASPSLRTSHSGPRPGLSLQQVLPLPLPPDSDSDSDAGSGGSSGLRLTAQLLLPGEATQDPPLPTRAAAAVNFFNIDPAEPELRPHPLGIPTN
T2 sequence (P28223 whole entry): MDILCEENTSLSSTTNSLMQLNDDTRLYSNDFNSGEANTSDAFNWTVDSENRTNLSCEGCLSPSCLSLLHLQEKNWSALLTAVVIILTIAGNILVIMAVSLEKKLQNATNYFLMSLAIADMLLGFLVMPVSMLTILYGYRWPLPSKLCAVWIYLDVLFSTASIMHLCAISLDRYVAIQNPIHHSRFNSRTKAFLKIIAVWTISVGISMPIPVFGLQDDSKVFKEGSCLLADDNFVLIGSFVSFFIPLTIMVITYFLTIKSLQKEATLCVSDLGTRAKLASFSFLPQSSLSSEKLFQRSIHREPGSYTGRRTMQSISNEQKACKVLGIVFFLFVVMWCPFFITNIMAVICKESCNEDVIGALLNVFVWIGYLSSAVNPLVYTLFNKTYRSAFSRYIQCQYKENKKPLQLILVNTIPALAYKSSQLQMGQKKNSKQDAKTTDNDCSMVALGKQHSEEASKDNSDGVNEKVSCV
Chain of human recombinant serotonin (5-Hydroxytryptamine) 5-HT7 receptor (P34969 whole entry): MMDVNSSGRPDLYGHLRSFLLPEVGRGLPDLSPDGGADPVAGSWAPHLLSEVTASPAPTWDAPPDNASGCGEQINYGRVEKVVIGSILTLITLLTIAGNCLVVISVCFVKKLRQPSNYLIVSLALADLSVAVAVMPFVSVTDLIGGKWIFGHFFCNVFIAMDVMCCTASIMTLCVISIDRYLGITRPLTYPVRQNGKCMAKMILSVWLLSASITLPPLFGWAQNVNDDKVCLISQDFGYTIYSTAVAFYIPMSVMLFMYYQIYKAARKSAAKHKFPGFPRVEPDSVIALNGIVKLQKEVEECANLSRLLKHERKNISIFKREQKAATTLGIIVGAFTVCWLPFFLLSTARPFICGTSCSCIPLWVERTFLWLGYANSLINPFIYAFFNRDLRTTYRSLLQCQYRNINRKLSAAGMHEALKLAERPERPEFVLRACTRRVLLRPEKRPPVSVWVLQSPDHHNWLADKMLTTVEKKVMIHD
Chain of histamine receptor H1 (P35367 whole entry): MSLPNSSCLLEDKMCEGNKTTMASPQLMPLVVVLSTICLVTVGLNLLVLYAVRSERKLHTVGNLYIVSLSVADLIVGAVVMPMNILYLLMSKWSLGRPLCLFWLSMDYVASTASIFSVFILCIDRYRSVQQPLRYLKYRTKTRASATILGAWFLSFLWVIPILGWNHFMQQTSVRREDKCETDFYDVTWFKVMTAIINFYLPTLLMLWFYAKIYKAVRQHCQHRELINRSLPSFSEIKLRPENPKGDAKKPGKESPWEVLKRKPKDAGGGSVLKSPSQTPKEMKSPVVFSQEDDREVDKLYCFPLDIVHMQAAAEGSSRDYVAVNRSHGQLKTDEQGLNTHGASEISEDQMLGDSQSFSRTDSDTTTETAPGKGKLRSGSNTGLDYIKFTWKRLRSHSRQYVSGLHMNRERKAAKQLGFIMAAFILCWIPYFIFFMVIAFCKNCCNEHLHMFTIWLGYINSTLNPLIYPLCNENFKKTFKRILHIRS

With `C/C(=C\n1c2c(c3ccc(Cl)cc31)CN(C)CC2)c1ccc(F)cc1` [Compound 228, (E)-7-chloro-5-(2-(4-fluorophenyl)prop-1-enyl)-2-methyl-2,3,4,5-tetrahydro-1H-pyrido[4,3-b]indole], the inhibition (usually the change of the read-out against control, counted positive when it falls) at 1 µM was determined as 66% at histamine receptor H1; 102% in experiment [1]; 98% in experiment [2] (setting [7]); 101% in experiment [3]; 97% in experiment [4]; 106% in experiment [5]. For the same compound, the inhibition at 1 µM in experiment [6] was 97%.
Take `COc1ccc(C#Cn2c3c(c4cc(C)ccc42)CN(C)CC3)cc1F` [Compound No. 485, 5-((3-fluoro-4-methoxyphenyl)ethynyl)-2,8-dimethyl-2,3,4,5-tetrahydro-1H-pyrido[4,3-b]indole]: the inhibition at 1 µM at histamine receptor H1 is -6%; in experiment [1] it was 97%; in experiment [2] ([…] [3H]Spiperone, read-out: Inhibition of ligand binding, Dopamine D2L (percent inhibition of specific binding)), 14%; in experiment [3] it was 96%; in experiment [4] it was 102%; in experiment [5], 89%. Also, the inhibition at 1 µM in experiment [6] worked out at 77%.
`C/C(=C\n1c2c(c3cc(C)ccc31)CN(C)CC2)c1ccc(O)cc1` [Compound 235, (E)-4-(1-(2,8-dimethyl-3,4-dihydro-1H-pyrido[4,3-b]indol-5(2H)-yl)prop-1-en-2-yl)phenol]: the inhibition at 1 µM on histamine receptor H1 worked out at 73%; in experiment [1] it was 96%; in experiment [2] (setting [7]), 80%; in experiment [3], 98%; in experiment [4], 101%; in experiment [5], 99%. Besides, the inhibition at 1 µM in experiment [6] came out at 96%.
Regarding `C/C(=C\n1c2c(c3ccc(Cl)cc31)CN(C)CC2)c1ccncc1` [Compound 219, (E)-7-chloro-2-methyl-5-(2-(pyridin-4-yl)prop-1-enyl)-2,3,4,5-tetrahydro-1H-pyrido[4,3-b]indole], the “Histamine Binding (1 μM) H1, percent inhibition of specific binding” value at histamine receptor H1 (1 μM) is on record as 66%. The inhibition at 1 µM at histamine receptor H1 stood at 60%; in experiment [1] it was 82%; in experiment [2] (setting [7]), 96%; in experiment [3], 101%; in experiment [4], 98%; in experiment [5], 102%. For the same compound, the inhibition at 1 µM in experiment [6] was found to be 94%. The “Inhibition of ligand binding, Dopamine D2L” value in experiment [2] (percent inhibition of specific binding, 1 µM) came to 97%. The inhibition at 0.1 µM in experiment [3] (read-out: Inhibition of ligand binding, Serotonin 5-HT2A (percent inhibition of specific binding), compound at 0.1 μM) amounted to 100%; in experiment [4] (compound at 0.1 μM), 94%; in experiment [5] (compound at 0.1 μM) it was 96%.
On to `C/C(=C\n1c2c(c3cc(Cl)ccc31)CN(C)CC2)c1cc(F)c(F)cc1Cl` [Compound 241, (E)-8-chloro-5-(2-(2-chloro-4,5-difluorophenyl)prop-1-enyl)-2-methyl-2,3,4,5-tetrahydro-1H-pyrido[4,3-b]indole], for which the inhibition at 1 µM on histamine receptor H1 was determined as 89%; in experiment [1], 98%; in experiment [2] (setting [7]), 47%; in experiment [3] it was 93%; in experiment [4] it was 100%; in experiment [5] it was 101%. The inhibition at 1 µM in experiment [6] was determined as 96%.
Take `C/C(=C/n1c2c(c3cc(C)ccc31)CN(C)CC2)c1cccc(F)c1` [Compound 225, (Z)-5-(2-(3-fluorophenyl)prop-1-enyl)-2,8-dimethyl-2,3,4,5-tetrahydro-1H-pyrido[4,3-b]indole]: the inhibition at 1 µM on histamine receptor H1 worked out at 81%; in experiment [1], 98%; in experiment [2] (setting [7]), 43%; in experiment [3], 99%; in experiment [4] it was 100%; in experiment [5], 103%. Besides, the inhibition at 1 µM in experiment [6] was found to be 94%.
As to `CN1CCc2c(c3cc(F)ccc3n2CC(C)(O)c2ccncc2)C1` (stereo not shown) [Compound 181, 1-(8-fluoro-2-methyl-3,4-dihydro-1H-pyrido[4,3-b]indol-5(2H)-yl)-2-(pyridin-4-yl)propan-2-ol], the inhibition at 1 µM turned out to be 0% on histamine receptor H1; 25% in experiment [1]; 8% in experiment [2] (setting [7]); 77% in experiment [3]; 80% in experiment [4]; 32% in experiment [5]. In experiment [6], the inhibition at 1 µM is 30%.
For the compound `C/C(=C\n1c2c(c3cc(Cl)c(Cl)cc31)CN(C)CC2)c1ccncc1` [Compound 243, (E)-7,8-dichloro-2-methyl-5-(2-(pyridin-4-yl)prop-1-enyl)-2,3,4,5-tetrahydro-1H-pyrido[4,3-b]indole], the inhibition at 1 µM came to 95% at histamine receptor H1; 90% in experiment [1]; 96% in experiment [2] (setting [7]); 100% in experiment [3]; 99% in experiment [4]; 107% in experiment [5]. The inhibition at 1 µM in experiment [6] is 97%.
Take `C/C(=C\n1c2c(c3c(Cl)c(Cl)ccc31)CN(C)CC2)c1ccc(F)cc1` [Compound 232, (E)-8,9-dichloro-5-(2-(4-fluorophenyl)prop-1-enyl)-2-methyl-2,3,4,5-tetrahydro-1H-pyrido[4,3-b]indole]: the inhibition at 1 µM was 71% at histamine receptor H1; 95% in experiment [1]; 91% in experiment [2] (setting [7]); 99% in experiment [3]; 98% in experiment [4]; 103% in experiment [5]. For the same compound, the inhibition at 1 µM in experiment [6] was 84%.
For `C/C(=C\n1c2c(c3cc(C)ccc31)CN(C)CC2)c1ccc(F)c(F)c1` [Compound 230, (E)-5-(2-(3,4-difluorophenyl)prop-1-enyl)-2,8-dimethyl-2,3,4,5-tetrahydro-1H-pyrido[4,3-b]indole], the inhibition at 1 µM came out at 35% at histamine receptor H1; 96% in experiment [1]; 44% in experiment [2] (setting [7]); 98% in experiment [3]; 100% in experiment [4]; 97% in experiment [5]. Besides, in experiment [6], the inhibition at 1 µM worked out at 93%.
In the case of `C/C(=C/n1c2c(c3cc(C)ccc31)CN(C)CC2)c1ccccc1Cl` [Compound 242, (Z)-5-(2-(2-chlorophenyl)prop-1-enyl)-2,8-dimethyl-2,3,4,5-tetrahydro-1H-pyrido[4,3-b]indole], the inhibition at 1 µM at histamine receptor H1 is 88%; in experiment [1] it was 97%; in experiment [2] (setting [7]), 55%; in experiment [3], 98%; in experiment [4] it was 99%; in experiment [5] it was 107%. Also, the inhibition at 1 µM in experiment [6] stood at 100%.
